Experimental data: patent US7241775B2, “Composition, process of making, and medical use of substituted 4-phenyltetrahydroisoquinolines” (Sanofi-Aventis Deutschland GmbH, priority 2003, dated 2007)
pIC50: −log10 of the molar value. Counter-ions that a name gives are not always drawn.

The compounds below were run against T1, NHE3 (Homo sapiens, UniProt P48764) (assay: Recovery of intracellular pH (pHi) after acidification, BCECF fluorescence, NHE3). Details: inhibition of pH recovery after intracellular acidification; rate registered at three minutes for NHE3; bicarbonate-free.
T1 sequence (P48764 26-834): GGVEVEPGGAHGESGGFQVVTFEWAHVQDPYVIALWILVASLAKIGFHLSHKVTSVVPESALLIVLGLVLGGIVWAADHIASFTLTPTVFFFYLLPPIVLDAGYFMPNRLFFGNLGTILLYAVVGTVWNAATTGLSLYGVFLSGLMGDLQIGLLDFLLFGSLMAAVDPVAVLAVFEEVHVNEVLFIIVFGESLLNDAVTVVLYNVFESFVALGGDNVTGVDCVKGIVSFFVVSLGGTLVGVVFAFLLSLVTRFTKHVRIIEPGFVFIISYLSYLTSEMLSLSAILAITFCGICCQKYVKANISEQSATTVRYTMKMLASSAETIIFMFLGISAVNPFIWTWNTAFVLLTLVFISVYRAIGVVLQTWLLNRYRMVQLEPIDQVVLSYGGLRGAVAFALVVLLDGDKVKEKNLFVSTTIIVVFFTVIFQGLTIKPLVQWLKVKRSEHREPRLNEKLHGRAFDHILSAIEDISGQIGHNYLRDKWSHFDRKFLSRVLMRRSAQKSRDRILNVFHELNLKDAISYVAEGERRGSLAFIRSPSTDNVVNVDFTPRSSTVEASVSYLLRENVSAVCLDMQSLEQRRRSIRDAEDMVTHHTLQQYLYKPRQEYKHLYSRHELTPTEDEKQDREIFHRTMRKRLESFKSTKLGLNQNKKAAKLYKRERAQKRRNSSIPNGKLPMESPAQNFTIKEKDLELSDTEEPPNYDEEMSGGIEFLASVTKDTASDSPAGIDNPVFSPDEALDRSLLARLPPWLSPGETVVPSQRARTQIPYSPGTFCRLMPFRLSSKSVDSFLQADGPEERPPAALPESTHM
Assay type: cell-based
Protocol: Pharmacological Data: Test Description:
This test determines the recovery of the intracellular pH (pHi) after acidification, and this recovery occurs in the case of functional NHE even under bicarbonate-free conditions. To this end, the pHi was determined using the pH-sensitive fluorescent dye BCECF (Calbiochem, the BCECF-AM precursor was used). The cells were initially loaded with BCECF. The BCECF fluorescence was determined in a Ratio Fluorescence Spectrometer (Photon Technology International, South Brunswick, N.J., USA) at excitation wavelengths of 505 and 440 nm and an emission wavelength of 535 nm and converted to the pHi by means of calibration curves. The cells had already been incubated in NH4Cl buffer (pH 7.4) in the course of the BCECF loading (NH4Cl buffer: 115 mM NaCl, 20 mM NH4Cl, 5 mM KCl, 1 mM CaCl2, 1 mM MgSO4, 20 mM Hepes, 5 mM glucose, 1 mg/ml BSA; a pH of 7.4 was established using 1 M NaOH). The intracellular acidification was induced by adding 975 μl of an NH4Cl-free buffer (see below) to 25 μl aliquots of the cells incubated in NH4Cl buffer. The subsequent rate of the pH recovery was registered at 2 minutes for NHE1, at 5 minutes for NHE2 and at three minutes for NHE3. For the calculation of the inhibitory potency of the tested substances, the cells were initially investigated in buffers in which complete or absolutely no pH recovery took place. For complete pH recovery (100%), the cells were incubated in Na^+-containing buffer (133.8 mM NaCl, 4.7 mM KCl, 1.25 mM CaCl2, 1.25 mM MgCl2, 0.97 mM Na2HPO4, 0.23 mM NaH2PO4, 5 mM Hepes, 5 mM glucose, a pH of 7.0 was established using 1 M NaOH). For the determination of the 0% value, the cells were incubated in an Na^+-free buffer (133.8 mM choline chloride, 4.7 mM KCl, 1.25 mM CaCl2, 1.25 mM MgCl2, 0.97 mM K2HPO4, 0.23 mM KH2PO4, 5 mM Hepes, 5 mM glucose, a pH of 7.0 was established using 1 M NaOH). The substances to be tested were made up in the Na^+-containing buffer. The recovery of the intracellular pH at each tested concentration of a substance was expressed in percent of the maximum recovery. The percentages of the pH recovery were used to calculate the IC50 value of the particular substance for the individual NHE subtypes by means of the program Sigma-Plot.

pIC50 | SMILES
8.44 | CN1Cc2c(Cl)cc(Cl)cc2C(c2cccc(NC(=O)[C@H](O)[C@@H](O)[C@H](O)[C@H](O)CO)c2)C1 (stereo partly drawn) [Example 2, N-[3-(6,8-dichloro-2-methyl-1,2,3,4-tetrahydroisoquinolin-4-yl)phenyl]-(2R,3S,4R,5R)-2,3,4,5,6-pentahydroxyhexanamide]
7.75 | CN1Cc2c(Cl)cc(Cl)cc2C(c2cccc(NC(=O)N[C@@H](CC(N)=O)C(=O)O)c2)C1 (stereo partly drawn) [Example 13, {N-[3-(6,8-dichloro-2-methyl-1,2,3,4-tetrahydroisoquinolin-4-yl)phenyl]-N′-(1-carboxy-4-aminocarboxy-2S-butyl)}urea hydrochloride]
6.80 | CN1Cc2c(Cl)cc(Cl)cc2C(c2cccc(C(=O)N[C@@H](CO)C(=O)O)c2)C1 (stereo partly drawn) [Example 16, (S)-2-[3-(6,8-dichloro-2-methyl-1,2,3,4-tetrahydroisoquinolin-4-yl)benzoylamino]-3-hydroxypropionic acid hydrochloride]
7.54 | CN1Cc2c(Cl)cc(Cl)cc2C(c2ccc(NC(=O)[C@@H](N)CCCNC(=N)N)cc2)C1 (stereo partly drawn) [Example 31, N-[4-(6,8-dichloro-2-methyl-1,2,3,4-tetrahydroisoquinolin-4-yl)phenyl]-(S)-2-amino-5-guanidinopentanamide trifluoroacetate]
